Laboratory results as given in patent US9776995B2, “Bicyclic sulfonamide compounds as sodium channel inhibitors” (AMGEN INC., priority 2013, dated 2017).
Where two headings read alike, the source gives them in different places.

How the values were obtained:
[1] = molecular target: Nav 1.7 (Homo sapiens (Human), UniProt Q15858); experiment: in-vitro Nav 1.7 PX data; format: cell-based
[2] = molecular target: Nav 1.5 (Homo sapiens (Human), UniProt Q14524); experiment: in-vitro Nav 1.5 PX data; conditions: read-out: Nav 1.5 PX IC50
Chain of Nav 1.5 (Q14524 whole entry): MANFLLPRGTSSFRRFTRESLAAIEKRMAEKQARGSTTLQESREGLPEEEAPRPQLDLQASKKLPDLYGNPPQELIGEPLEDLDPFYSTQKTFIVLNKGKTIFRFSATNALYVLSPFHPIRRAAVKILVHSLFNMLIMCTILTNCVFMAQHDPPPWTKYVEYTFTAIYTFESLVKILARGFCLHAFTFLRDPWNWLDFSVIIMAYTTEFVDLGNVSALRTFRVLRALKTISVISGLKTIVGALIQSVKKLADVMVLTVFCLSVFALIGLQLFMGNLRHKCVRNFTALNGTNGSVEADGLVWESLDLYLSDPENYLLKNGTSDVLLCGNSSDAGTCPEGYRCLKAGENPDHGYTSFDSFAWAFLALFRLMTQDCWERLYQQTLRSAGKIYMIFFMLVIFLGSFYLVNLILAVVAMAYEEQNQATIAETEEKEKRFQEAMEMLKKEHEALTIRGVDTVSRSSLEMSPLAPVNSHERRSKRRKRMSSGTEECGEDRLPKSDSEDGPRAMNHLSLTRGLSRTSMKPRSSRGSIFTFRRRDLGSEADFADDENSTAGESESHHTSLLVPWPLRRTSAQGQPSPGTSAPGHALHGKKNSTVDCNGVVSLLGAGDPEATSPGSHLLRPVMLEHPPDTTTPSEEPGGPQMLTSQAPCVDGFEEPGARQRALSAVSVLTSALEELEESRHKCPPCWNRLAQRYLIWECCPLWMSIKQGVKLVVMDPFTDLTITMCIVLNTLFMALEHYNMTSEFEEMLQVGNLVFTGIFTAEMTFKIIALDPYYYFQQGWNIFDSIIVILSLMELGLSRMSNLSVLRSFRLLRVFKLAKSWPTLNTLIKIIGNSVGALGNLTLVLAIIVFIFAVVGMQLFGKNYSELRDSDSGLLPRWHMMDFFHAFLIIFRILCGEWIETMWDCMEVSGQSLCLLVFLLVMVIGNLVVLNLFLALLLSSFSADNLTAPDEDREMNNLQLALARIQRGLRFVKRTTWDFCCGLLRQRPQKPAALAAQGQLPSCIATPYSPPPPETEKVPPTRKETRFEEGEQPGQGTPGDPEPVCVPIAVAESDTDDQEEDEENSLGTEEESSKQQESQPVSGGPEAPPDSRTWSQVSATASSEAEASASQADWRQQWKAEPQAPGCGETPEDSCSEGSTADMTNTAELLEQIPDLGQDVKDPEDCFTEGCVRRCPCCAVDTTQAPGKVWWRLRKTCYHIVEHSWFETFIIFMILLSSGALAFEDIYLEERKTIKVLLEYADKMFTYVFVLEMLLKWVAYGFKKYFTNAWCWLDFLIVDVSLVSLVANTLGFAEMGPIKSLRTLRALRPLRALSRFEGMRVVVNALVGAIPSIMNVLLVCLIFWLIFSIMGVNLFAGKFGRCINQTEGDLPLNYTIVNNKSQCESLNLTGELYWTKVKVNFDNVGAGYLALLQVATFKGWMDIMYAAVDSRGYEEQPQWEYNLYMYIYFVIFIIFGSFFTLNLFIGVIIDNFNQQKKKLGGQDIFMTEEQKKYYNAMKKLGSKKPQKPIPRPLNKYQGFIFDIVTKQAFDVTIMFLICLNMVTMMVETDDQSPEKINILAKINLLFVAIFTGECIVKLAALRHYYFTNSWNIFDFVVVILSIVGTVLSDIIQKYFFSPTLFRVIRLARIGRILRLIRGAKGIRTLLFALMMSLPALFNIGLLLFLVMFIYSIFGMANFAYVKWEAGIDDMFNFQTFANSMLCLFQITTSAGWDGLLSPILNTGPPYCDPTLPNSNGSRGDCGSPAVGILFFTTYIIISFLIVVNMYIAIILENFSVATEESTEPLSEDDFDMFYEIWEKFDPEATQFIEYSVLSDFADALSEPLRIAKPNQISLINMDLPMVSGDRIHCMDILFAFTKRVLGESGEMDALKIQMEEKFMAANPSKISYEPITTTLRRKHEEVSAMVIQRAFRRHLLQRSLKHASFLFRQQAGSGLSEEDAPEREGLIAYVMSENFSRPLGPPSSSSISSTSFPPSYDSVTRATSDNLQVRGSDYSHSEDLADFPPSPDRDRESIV

Chain of Nav 1.7 (Q15858 whole entry): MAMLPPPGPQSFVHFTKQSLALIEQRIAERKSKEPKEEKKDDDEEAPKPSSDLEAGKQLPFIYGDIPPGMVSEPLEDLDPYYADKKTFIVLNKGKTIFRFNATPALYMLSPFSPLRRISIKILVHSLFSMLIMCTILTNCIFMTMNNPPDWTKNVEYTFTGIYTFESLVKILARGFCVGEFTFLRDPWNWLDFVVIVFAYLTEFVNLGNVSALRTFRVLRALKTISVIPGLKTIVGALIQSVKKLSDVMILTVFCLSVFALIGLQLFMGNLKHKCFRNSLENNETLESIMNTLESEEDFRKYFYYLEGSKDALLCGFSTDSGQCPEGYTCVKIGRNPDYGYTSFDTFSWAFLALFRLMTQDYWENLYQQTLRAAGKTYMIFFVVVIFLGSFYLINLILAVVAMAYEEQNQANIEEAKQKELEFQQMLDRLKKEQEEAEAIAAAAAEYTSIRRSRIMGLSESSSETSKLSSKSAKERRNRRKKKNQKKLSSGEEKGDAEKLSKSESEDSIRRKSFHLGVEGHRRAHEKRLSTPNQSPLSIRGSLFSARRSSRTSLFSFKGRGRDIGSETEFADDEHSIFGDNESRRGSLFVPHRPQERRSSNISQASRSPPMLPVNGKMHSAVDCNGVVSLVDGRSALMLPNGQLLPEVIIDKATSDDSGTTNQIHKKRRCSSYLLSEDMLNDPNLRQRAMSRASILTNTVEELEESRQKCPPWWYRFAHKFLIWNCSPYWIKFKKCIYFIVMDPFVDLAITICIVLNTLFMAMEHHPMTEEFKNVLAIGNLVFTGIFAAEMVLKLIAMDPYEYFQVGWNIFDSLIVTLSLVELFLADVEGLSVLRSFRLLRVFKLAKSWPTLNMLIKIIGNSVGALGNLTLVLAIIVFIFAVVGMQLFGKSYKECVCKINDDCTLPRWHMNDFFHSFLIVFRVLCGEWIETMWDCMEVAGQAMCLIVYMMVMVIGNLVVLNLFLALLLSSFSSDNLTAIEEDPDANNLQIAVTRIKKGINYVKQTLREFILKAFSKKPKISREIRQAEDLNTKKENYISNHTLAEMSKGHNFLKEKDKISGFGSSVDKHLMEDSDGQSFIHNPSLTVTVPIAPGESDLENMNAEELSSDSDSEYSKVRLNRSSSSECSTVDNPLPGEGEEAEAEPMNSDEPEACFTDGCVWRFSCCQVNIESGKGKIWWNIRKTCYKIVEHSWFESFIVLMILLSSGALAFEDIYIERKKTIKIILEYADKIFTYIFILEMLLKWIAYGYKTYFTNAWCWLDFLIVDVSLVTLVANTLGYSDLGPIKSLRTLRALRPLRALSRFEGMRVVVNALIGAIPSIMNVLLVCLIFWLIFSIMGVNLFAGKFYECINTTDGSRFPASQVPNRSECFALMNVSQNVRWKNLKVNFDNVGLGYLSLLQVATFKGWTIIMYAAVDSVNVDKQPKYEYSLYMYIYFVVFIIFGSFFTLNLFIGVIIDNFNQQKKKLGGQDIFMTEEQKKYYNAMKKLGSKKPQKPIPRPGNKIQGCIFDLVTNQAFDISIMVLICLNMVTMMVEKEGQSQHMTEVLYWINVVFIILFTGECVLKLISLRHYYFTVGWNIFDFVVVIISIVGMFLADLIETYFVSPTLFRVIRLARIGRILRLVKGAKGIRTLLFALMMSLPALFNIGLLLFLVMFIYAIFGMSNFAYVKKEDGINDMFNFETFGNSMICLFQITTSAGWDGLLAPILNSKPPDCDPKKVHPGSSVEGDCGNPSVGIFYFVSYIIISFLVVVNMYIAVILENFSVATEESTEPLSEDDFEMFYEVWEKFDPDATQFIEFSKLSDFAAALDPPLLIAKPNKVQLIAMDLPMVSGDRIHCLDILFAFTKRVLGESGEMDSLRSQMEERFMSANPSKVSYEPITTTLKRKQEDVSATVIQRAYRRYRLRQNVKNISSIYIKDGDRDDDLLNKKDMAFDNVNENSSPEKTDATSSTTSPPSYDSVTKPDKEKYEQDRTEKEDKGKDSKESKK

SMILES: COc1cccc(Oc2ccc(-c3nccc4cc(S(=O)(=O)Nc5ccncn5)ccc34)c(OC)c2)c1 [Example 183, 1-(2-methoxy-4-(3-methoxyphenoxy)phenyl)-N-4-pyrimidinyl-6-isoquinolinesulfonamide]
- IC50 ([1]; in-vitro PX (PatchXpress) data): 203 nM
- IC50 ([2]; in-vitro PX (PatchXpress) data): > 10 µM

SMILES: COc1cc(-c2cccc(C(F)(F)F)c2)c(C#N)cc1-c1ncnc2cc(S(=O)(=O)Nc3nncs3)ccc12 [Example 226, 4-(2-cyano-5-methoxy-3′-(trifluoromethyl)-4-biphenylyl)-N-1,3,4-thiadiazol-2-yl-7-quinazolinesulfonamide]
- IC50 ([1]; in-vitro PX): 11.6 nM
- IC50 ([2]; in-vitro PX): > 10 µM

SMILES: COc1cc(-c2ccc(Cl)c(C)c2)c(C#N)cc1-c1nccc2cc(S(=O)(=O)Nc3ccncn3)ccc12 [Example 161, 1-(4′-chloro-2-cyano-5-methoxy-3′-methyl-4-biphenylyl)-N-4-pyrimidinyl-6-isoquinolinesulfonamide]
- IC50 ([1]; in-vitro Nav 1.7 PX data): 17.4 nM
- IC50 ([2]; in-vitro Nav 1.5 PX data): > 30 µM

SMILES: COc1cc(-c2cc(F)cnc2OC)ccc1-c1ccnc2cc(S(=O)(=O)Nc3nncs3)ccc12 [Example 209, 4-(4-(5-fluoro-2-methoxy-3-pyridinyl)-2-methoxyphenyl)-N-1,3,4-thiadiazol-2-yl-7-quinolinesulfonamide]
- IC50 ([1]; in-vitro PX): 328 nM
- IC50 ([2]; in-vitro PX): > 10 µM

SMILES: COc1cc(-c2ccc(C)c(F)c2)c(C#N)cc1-c1nccc2cc(S(=O)(=O)Nc3ccncn3)ccc12 [Example 163, 1-(2-cyano-3′-fluoro-5-methoxy-4′-methyl-4-biphenylyl)-N-4-pyrimidinyl-6-isoquinolinesulfonamide]
- IC50 ([1]; in-vitro Nav 1.7 PX data): 92.1 nM
- IC50 ([2]; in-vitro Nav 1.5 PX data): > 10 µM

SMILES: COc1cc(-c2cccc(C)c2)c(C#N)cc1-c1nccc2cc(S(=O)(=O)Nc3ccon3)ccc12 [Example 112, 1-(2-cyano-5-methoxy-3′-methyl-4-biphenylyl)-N-3-isoxazolyl-6-isoquinolinesulfonamide]
- IC50 ([1]; in-vitro PX data): 39.5 nM
- IC50 ([2]; in-vitro PX data): > 10 µM

SMILES: COc1cc(-c2ccccc2C)c(C#N)cc1-c1nccc2cc(S(=O)(=O)Nc3ccncn3)ccc12 [Example 157, 1-(2-cyano-5-methoxy-2′-methyl-4-biphenylyl)-N-4-pyrimidinyl-6-isoquinolinesulfonamide]
- IC50 ([1]; in-vitro Nav 1.7 PX data): 206 nM
- IC50 ([2]; in-vitro Nav 1.5 PX data): > 10 µM

SMILES: N#CCOc1cc(-c2cccc(F)c2)ccc1-c1nccc2cc(S(=O)(=O)Nc3nncs3)ccc12 [Example 238, 1-(3-(cyanomethoxy)-3′-fluoro-4-biphenylyl)-N-1,3,4-thiadiazol-2-yl-6-isoquinolinesulfonamide]
- IC50 ([1]; in-vitro PX): 144 nM
- IC50 ([2]; in-vitro PX): > 10 µM

SMILES: COc1cc(-c2ccc(F)c(Cl)c2)c(C#N)cc1-c1nccc2cc(S(=O)(=O)Nc3ccncn3)ccc12 [Example 158, 1-(3′-chloro-2-cyano-4′-fluoro-5-methoxy-4-biphenylyl)-N-4-pyrimidinyl-6-isoquinolinesulfonamide]
- IC50 ([1]; in-vitro Nav 1.7 PX data): 19.4 nM
- IC50 ([2]; in-vitro Nav 1.5 PX data): 5.85 µM

SMILES: COc1cc(-c2cc(F)cnc2OC)c(C)cc1-c1ncnc2cc(S(=O)(=O)Nc3ccon3)ccc12 [Example 198, 4-(4-(5-fluoro-2-methoxy-3-pyridinyl)-2-methoxy-5-methylphenyl)-N-3-isoxazolyl-7-quinazolinesulfonamide]
- IC50 ([1]; in-vitro PX (PatchXpress) data): 183 nM
- IC50 ([2]; in-vitro PX (PatchXpress) data): > 10 µM
